Data reported in patent US10975056B2 (GlaxoSmithKline Intellectual Property Development Limited, priority 2016, dated 2021).
Counter-ions that a name gives are not always drawn.

Columns and labels:
[1] = molecular target: DNMT1 (Homo sapiens, UniProt P26358); assay: DNMT1 biochemical activity, breaklight assay and/or SPA assay; conditions: binned activity in either the breaklight or the SPA assay; for IC50: read-out: DNMT1 BioChemical (pIC50 category) (converted)
Procedure: DNMT1 breaklight in vitro assays were conducted in a total volume of 50 μl in a standard 384 well format, using black non-binding surface microplates (Corning 3575). […] Negative control wells used 5 μl of DNMT1 and 5 μl of oligonucleotide but 0 μM SAM. All reagents were made up in 1× assay buffer (20 mM Tris pH 6.8, 25 mM NaCl, 0.5 mM MgCl2, 0.01% Triton X100 and 1 mM DTT). The reaction was incubated at 26° C. for 45 min and then stopped with the addition of 40 μl detection reagent. Detection reagent, made up in 1× Gla assay buffer (20 mM Tris pH 8.0, 80 mM NaCl, 0.75 mM MgCl2, 0.01% Triton X100 and 1 mM DTT) has a final concentration of 100 μM SAH (Sigma #A9384) and 0.0008 units/μl Gla1 restriction endonuclease (Sibenzyme #E494). Following addition of the detection reagent the plate was incubated in the dark at room temperature for 5 hr. Fluorescence intensity was then measured on the PHERAstar FS (BMG Labtech) at Ex 485 nm and Em 520 nm, with a gain of 400 and an integration time of 100 ms.
Biochemical activity of DNMT1 analyzed using SPA technology. Plates (Griener 784075) were pre-stamped with 100 nL/well of compound (11-point, 3-fold serial dilution). […] Low control wells contained 5 μL of buffer instead of enzyme. Following a 40 minute incubation, the reaction was quenched upon the addition of 10 μL of stop mixture containing 1 mM SAM (Sigma A7007) and 2 mg/mL PEI beads (Perkin Elmer RPNQ0098). Plates were sealed, centrifuged for 1 min and then read on a Viewlux (Perkin Elmer) using the 613 nm emission filter/300 s read time following a 30 minute dark adapt. Assay conditions prior to quench consisted of 40 nM DNMT1 (601-1600, produced internally), 100 nM 3H-SAM (American Radiolabeled Chemicals ART 0288), 900 nM SAM (New England BioLabs B9003S) and 200 nM hemi methylated DNA oligonucleotide (synthesized at Integrated DNA Technologies, 5′-[…]-3′) in 50 mM HEPES (pH 8.0), 2 mM MgCl2, 1 mM DTT, 0.01% NP-40 and 0.01% BSA.
Comments • 1. […] Where a field is empty, the compound was not tested in that assay.

[2] = system: erythroid progenitor cells (EPCs); assay: Fetal hemoglobin (HbF) ELISA in day 7 erythroid progenitor cells; assay type: cell-based, human; conditions: Homo sapiens, Erythroid progenitor cell, HbF ELISA, day 7 EPCs, 5 days; read-out: EPC ELISA (pEC50 category) (converted)
Procedure: Day 7 EPCs were cultured in duplicate plates with serially diluted Compound A for 5 days at 37° C. Wells were then analyzed for either induction of fetal hemoglobin (HbF,HbF ELISA) or cell growth (Cell Titer-Glo). In both cases, signal was normalized to vehicle-control treated cells.
Culture, Expansion, and Characterization of Day 7 Erythroid Progenitor Cells (EPC)s
All donors provided written informed consent for use of their samples, and the collection and use of the samples received institutional review board approval. All cryopreserved human bone marrow CD34+ cells used here were obtained from AlICells (Emeryville, Calif.) and were generally from different donors. The CD34+ cells were cultured to generate EPCs at day 7. Briefly, 1 million cells were cultured in 5% CO2, 5% O2 at 37° C. in H3000 Stemspan media (StemCell Technologies Vancouver, BC, Canada) supplemented with 2 mM L-glutamine, 40 μg/mL human low-density lipoproteins (StemCell Technologies), 10 ng/mL recombinant human (rh) interleukin IL-3 (R&D Systems, Minneapolis, Minn.), 100 ng/mL rh stem cell factor (R&D Systems), and 0.5 U/mL rh erythropoietin (Invitrogen, Grand Island, N.Y.). Cells were split and refed on day 4 with complete culture media described above and harvested on day 7 for evaluation of erythroid marker expression and assessment of γ-globin induction. Day 7 EPCs were then frozen in liquid nitrogen at 5 to 10 million cells/mL in 95% fetal bovine serum (FBS; Invitrogen) with 5% DMSO for subsequent use.
At the time of compound treatment, frozen day 7 EPCs prepared as described above were thawed, washed once and re-suspended in complete culture media as described above with the exception of an increase of rhEPO to 3 U/mL. Cells were counted and diluted to […] for plating into assay plates. Cells were then dispensed, at 30 μL per well with Multidrop™ Combi Reagent Dispenser (Thermo Scientific), into 384-well cell culture plates into which test compounds were pre-dispensed at 100 nL/well. Black Clear Bottom (Greiner Bio-One; 781090) and White (Greiner Bio-One; 781080) plates were used for ELISA and Cell Titer-Glo assays, respectively. The final cell density in the assays is 1,000 cells per well, with final compound concentrations between 33 nM (highest) and […] (lowest) for the 22-points serial dilution.
Fetal Hemoglobin (HbF) ELISA
Coating anti-HbF Ab (Bethyl Lab; cat. A80-136A) was diluted by 100-fold in the coating buffer (0.05 M carbonate-bicarbonate, pH 9.6), and then 20 μL/well was added to a 384-well MaxiSorp ELISA plate (Thermo Fisher; cat. 464718). After 1 hour incubation at room temperature, the plates were washed twice with ELISA washing buffer (50 mM Tris, 0.05% Tween 20, pH 8.0) with an EL406 plate washer (BioTek, Winooski, Vt.). Then, 40 μL/well of blocking buffer consisting of 50 mM Tris and 1% BSA (pH 8.0) was added to the plate and stored at 4° C. with cover sheet overnight, or until time of the assay. The coated ELISA plates were stable for up to 30 days at 4° C. On the day of assay, the plates were washed twice with ELISA washing buffer prior to addition of cell lysate.
After 5 days at 37° C. with 5% CO2 cell culture plates for ELISA assay were put into −80° C. freezer for a minimum of 2 hours. After thawing at room temperature, 30 μL of cell lysis buffer (Invitrogen; cat. FNN0011, supplemented with 1× protease inhibitor) was added to each well and the resulting cell lysate was mixed eight times with a Cybi-Well (Jena, Germany) pipettor. Following the mixing procedure, 20 μL/well of lysate was transferred to the coated ELISA plates described above followed by a 1 hour incubation at room temperature. The ELISA assay plates were washed three times with ELISA wash buffer. 20 μL per well of 1:75,000 to 100,000 diluted horseradish peroxidase (HRP) conjugate detection antiHbF Ab (Bethyl Labs; cat. A80-136P, diluted in 50 mM Tris [pH 8.0], 1% BSA, 0.05% Tween-20) was then added. […]

DNMT1, sequence (P26358 whole entry, looked up): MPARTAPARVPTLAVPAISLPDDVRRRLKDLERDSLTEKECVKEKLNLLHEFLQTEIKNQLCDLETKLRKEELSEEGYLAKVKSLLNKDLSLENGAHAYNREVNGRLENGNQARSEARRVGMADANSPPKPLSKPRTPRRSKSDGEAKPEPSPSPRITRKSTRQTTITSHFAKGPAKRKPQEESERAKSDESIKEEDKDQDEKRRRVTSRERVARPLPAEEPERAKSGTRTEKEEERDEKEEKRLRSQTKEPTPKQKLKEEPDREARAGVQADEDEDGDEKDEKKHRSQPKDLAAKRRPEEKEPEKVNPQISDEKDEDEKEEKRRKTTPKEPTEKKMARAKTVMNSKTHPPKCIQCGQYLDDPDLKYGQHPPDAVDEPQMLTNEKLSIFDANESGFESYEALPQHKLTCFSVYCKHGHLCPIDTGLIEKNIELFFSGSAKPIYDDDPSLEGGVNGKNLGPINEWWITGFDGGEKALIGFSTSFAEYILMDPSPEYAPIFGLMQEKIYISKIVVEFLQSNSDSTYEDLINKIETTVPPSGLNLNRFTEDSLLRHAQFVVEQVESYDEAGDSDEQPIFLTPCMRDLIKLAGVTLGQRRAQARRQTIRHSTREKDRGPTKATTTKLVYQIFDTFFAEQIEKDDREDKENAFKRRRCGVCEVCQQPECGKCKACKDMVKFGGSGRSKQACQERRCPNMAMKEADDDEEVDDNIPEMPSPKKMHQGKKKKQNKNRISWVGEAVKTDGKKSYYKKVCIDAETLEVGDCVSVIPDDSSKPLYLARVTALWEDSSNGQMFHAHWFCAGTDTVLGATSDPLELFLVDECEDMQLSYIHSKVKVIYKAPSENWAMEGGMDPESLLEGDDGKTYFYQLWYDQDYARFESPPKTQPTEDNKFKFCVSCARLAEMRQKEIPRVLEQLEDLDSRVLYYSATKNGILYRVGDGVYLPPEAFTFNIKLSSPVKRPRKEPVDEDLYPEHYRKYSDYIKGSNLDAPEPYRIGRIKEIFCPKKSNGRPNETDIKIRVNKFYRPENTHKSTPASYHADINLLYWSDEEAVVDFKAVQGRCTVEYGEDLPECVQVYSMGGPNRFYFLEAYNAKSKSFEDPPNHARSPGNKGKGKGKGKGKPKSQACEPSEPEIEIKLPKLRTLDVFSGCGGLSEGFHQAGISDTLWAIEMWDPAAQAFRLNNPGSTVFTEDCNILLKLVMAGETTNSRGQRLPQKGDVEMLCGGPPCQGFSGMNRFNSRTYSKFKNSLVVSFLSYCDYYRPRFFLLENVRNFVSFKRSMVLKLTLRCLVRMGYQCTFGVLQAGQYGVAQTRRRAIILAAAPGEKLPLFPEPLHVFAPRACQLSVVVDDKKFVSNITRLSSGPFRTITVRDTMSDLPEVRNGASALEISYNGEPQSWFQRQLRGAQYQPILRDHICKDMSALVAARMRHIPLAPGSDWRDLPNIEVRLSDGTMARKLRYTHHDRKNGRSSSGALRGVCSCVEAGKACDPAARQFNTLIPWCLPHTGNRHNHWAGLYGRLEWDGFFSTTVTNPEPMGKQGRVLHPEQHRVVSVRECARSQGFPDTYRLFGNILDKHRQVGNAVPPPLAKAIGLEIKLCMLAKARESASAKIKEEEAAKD

SMILES	DNMT1 BioChemical (pIC50 category) [1]	EC50 [2]	IC50 [1]
CCc1c(C#N)c(SC(C(N)=O)c2ccccc2)nc(N(C)CCN2CC[C@@H](N)C2)c1C#N (stereo partly drawn) [Example 529, 2-((6-((2-((R)-3-aminopyrrolidin-1-yl)ethyl)(methyl)amino)-3,5-dicyano-4-ethylpyridin-2-yl)thio)-2-phenylacetamide]	D (Category D: ≥6.5)	316 to 1000 nM	
CCc1c(C#N)c(SC(C(N)=O)c2ccccc2)nc(N2CCN(Cc3cnc[nH]3)CC2)c1C#N (stereo not drawn) [Example 188, 2-((6-(4-((1H-lmidazol-5-yl)methyl)piperazin-1-yl)-3,5-dicyano-4-ethylpyridin-2-yl)thio)-2-phenylacetamide]		1000 to 31600 nM	316 to 1000 nM
CN(CC(=O)NC(CO)CO)c1nc(SC(C(N)=O)c2ccccc2)c(C#N)c(C2CC2)c1C#N (stereo not drawn) [Example 639, 2-((6-((2-amino-2-oxo-1-phenylethyl)thio)-3,5-dicyano-4-cyclopropylpyridin-2-yl)(methyl)amino)-N-(1,3-dihydroxypropan-2-yl)acetamide]	D (Category D: ≥6.5)	1000 to 31600 nM	
CCc1c(C#N)c(SC(C(N)=O)c2ccccc2)nc(N2CCC(NC(=O)[C@@H](C)N)CC2)c1C#N (stereo partly drawn) [Example 366, (2R)-2-Amino-N-(1-(6-((2-amino-2-oxo-1-phenylethyl)thio)-3,5-dicyano-4-ethylpyridin-2-yl)piperidin-4-yl)propanamide, Hydrochloride]	D (Category D: ≥6.5)	< 316 nM	
CCc1c(C#N)c(SCc2ccc(N(C)S(C)(=O)=O)cc2)nc(N(C)CCN(C)CCOC)c1C#N [Example 461]	D (Category D: ≥6.5)	< 316 nM	
CCc1c(C#N)c(SC(C(N)=O)c2ccccc2)nc(N2CCC(N3CC[C@@H](F)C3)CC2)c1C#N (stereo partly drawn) [Example 460, 2-((3,5-dicyano-4-ethyl-6-(4-((R)-3-fluoropyrrolidin-1-yl)piperidin-1-yl)pyridin-2-yl)thio)-2-phenylacetamide]	D (Category D: ≥6.5)	< 316 nM	
CCc1c(C#N)c(SC(C(N)=O)c2ccccc2)nc(N2CCC(N)CC2)c1C#N (stereo not drawn) [Example 143, 2-((6-(4-Aminopiperidin-1-yl)-3,5-dicyano-4-ethylpyridin-2-yl)thio)-2-phenylacetamide]		< 316 nM	
CCc1c(C#N)c(S[C@H](C(N)=O)c2ccccc2)nc(N2CCC(N)CC2)c1C#N [Example 605, (S)-2-((6-(4-aminopiperidin-1-yl)-3,5-dicyano-4-ethylpyridin-2-yl)thio)-2-phenylacetamide, Hydrochloride]		< 316 nM	
CCc1c(C#N)c(SC(C(N)=O)c2ccccc2)nc(N(C)CC(=O)N2CC[C@@H](CO)C2)c1C#N (stereo partly drawn) [Example 652, 2-((3,5-dicyano-4-ethyl-6-((2-((R)-3-(hydroxymethyl)pyrrolidin-1-yl)-2-oxoethyl)(methyl)amino)pyridin-2-yl)thio)-2-phenylacetamide]		< 316 nM	
[2H][C@](Sc1nc(N(C)C)c(C#N)c(CC)c1C#N)(C(N)=O)c1ccccc1 [Example 308, (R)-2-((3,5-Dicyano-6-(dimethylamino)-4-ethylpyridin-2-yl)thio)-2-phenylacetamide-2-d]		316 to 1000 nM	
[2H]C([2H])([2H])N(c1nc(SC(C(N)=O)c2ccccc2)c(C#N)c(CC)c1C#N)C([2H])([2H])[2H] (stereo not drawn) [Example 404, 2-((3,5-Dicyano-6-(dimethylamino-d6)-4-ethylpyridin-2-yl)thio)-2-phenylacetamide]		316 to 1000 nM	
CCc1c(C#N)c(SC(C(N)=O)c2ccccc2)nc(N2CCC(NCC3(C)CCC3)CC2)c1C#N (stereo not drawn) [Example 466, 2-((3,5-dicyano-4-ethyl-6-(4-(((1-methylcyclobutyl)methyl)amino)piperidin-1-yl)pyridin-2-yl)thio)-2-phenylacetamide]		< 316 nM	
[2H]C(Sc1nc(N(C)C)c(C#N)c(CC)c1C#N)(C(N)=O)c1ccccc1 (stereo not drawn) [Example 305, 2-((3,5-Dicyano-6-(dimethylamino)-4-ethylpyridin-2-yl)thio)-2-phenylacetamide-2-d]		316 to 1000 nM	
CCc1c(C#N)c(SC(C(N)=O)c2ccccc2)nc(N2CCC(NCCOC)CC2)c1C#N (stereo not drawn) [Example 553, 2-((3,5-dicyano-4-ethyl-6-(4-((2-methoxyethyl)amino)piperidin-1-yl)pyridin-2-yl)thio)-2-phenylacetamide]	D (Category D: ≥6.5)		
CCc1c(C#N)c(S[C@@H](C(N)=O)c2ccccc2)nc(N(C)CCOP(=O)(O)O)c1C#N [Example 421, (R)-2-((6-((2-amino-2-oxo-1-phenylethyl)thio)-3,5-dicyano-4-ethylpyridin-2-yl(methyl)amino)ethyldihydroden phosphate]			1000 to 31600 nM
CCc1c(C#N)c(SC(C(N)=O)c2ccc(F)cc2)nc(N2CCC(N(C)C3CCC3)CC2)c1C#N (stereo not drawn) [Example 432, 2-((3,5-Dicyano-6-(4-(cyclobutyl(methyl)amino)piperidin-1-yl)-4-ethylpyridin-2-yl)thio)-2-(4-fluorophenyl)acetamide]	D (Category D: ≥6.5)		
CCc1c(C#N)c(S[C@H](C(N)=O)c2ccccc2)nc(N(C)[C@@H]2CCOC2)c1C#N [Example 502, (S)-2-(3,5-dicyano-4-ethyl-6-(methyl((R)-tetrahydrofuran-3-yl)amino)pyridin-2-ylthio)-2-phenylacetamide]	D (Category D: ≥6.5)		
CCc1c(C#N)c(S[C@@H](C(N)=O)c2ccccc2)nc(N2CCC(N)CC2)c1C#N [Example 412, (R)-2-((6-(4-aminopiperidin-1-yl)-3,5-dicyano-4-ethylpyridin-2-yl)thio)-2-phenylacetamide, Hydrochloride]		< 316 nM	
